Assay results from PMC10838953.

Columns and labels:
TAOK1 = TAOK1 (Homo sapiens, UniProt Q7L7X3); assay: biochemical; conditions: read-out: %Ctrl @ 2000nM
MST1R = MST1R (Homo sapiens, UniProt Q04912); assay: biochemical; conditions: read-out: %Ctrl @ 2000nM
CDKL1 = CDKL1 (Homo sapiens, UniProt Q00532); assay: biochemical; conditions: read-out: %Ctrl @ 2000nM
DRAK1 = DRAK1 (Homo sapiens, UniProt Q9UEE5); assay: biochemical; conditions: read-out: %Ctrl @ 2000nM
[1] = biological target: JAK2(JH1domain-catalytic) (Homo sapiens, UniProt O60674); assay: biochemical; conditions: read-out: %Ctrl @ 2000nM
DDR2 = DDR2 (Homo sapiens, UniProt Q16832); assay: biochemical; conditions: read-out: %Ctrl @ 2000nM
SNARK = SNARK (Homo sapiens, UniProt Q9H093); assay: biochemical; conditions: read-out: %Ctrl @ 2000nM
STK36 = STK36 (Homo sapiens, UniProt Q9NRP7); assay: biochemical; conditions: read-out: %Ctrl @ 2000nM
PIK3CG = PIK3CG (Homo sapiens, UniProt P48736); assay: biochemical; conditions: read-out: %Ctrl @ 2000nM
LCK = LCK (Homo sapiens, UniProt P06239); assay: biochemical; conditions: read-out: %Ctrl @ 2000nM
CSNK1A1 = CSNK1A1 (Homo sapiens, UniProt P48729); assay: biochemical; conditions: read-out: %Ctrl @ 2000nM
CDKL5 = CDKL5 (Homo sapiens, UniProt O76039); assay: biochemical; conditions: read-out: %Ctrl @ 2000nM
MAP4K4 = MAP4K4 (Homo sapiens, UniProt O95819); assay: biochemical; conditions: read-out: %Ctrl @ 2000nM
TIE2 = TIE2 (Homo sapiens, UniProt Q02763); assay: biochemical; conditions: read-out: %Ctrl @ 2000nM
TXK = TXK (Homo sapiens, UniProt P42681); assay: biochemical; conditions: read-out: %Ctrl @ 2000nM
PLK2 = PLK2 (Homo sapiens, UniProt Q9NYY3); assay: biochemical; conditions: read-out: %Ctrl @ 2000nM
[2] = biological target: RSK1(Kin.Dom.1-N-terminal) (Homo sapiens, UniProt Q15418); assay: biochemical; conditions: read-out: %Ctrl @ 2000nM
TLK1 = TLK1 (Homo sapiens, UniProt Q9UKI8); assay: biochemical; conditions: read-out: %Ctrl @ 2000nM
FGFR2 = FGFR2 (Homo sapiens, UniProt P21802); assay: biochemical; conditions: read-out: %Ctrl @ 2000nM
ULK2 = ULK2 (Homo sapiens, UniProt Q8IYT8); assay: biochemical; conditions: read-out: %Ctrl @ 2000nM
FYN = FYN (Homo sapiens, UniProt P06241); assay: biochemical; conditions: read-out: %Ctrl @ 2000nM
TBK1 = TBK1 (Homo sapiens, UniProt Q9UHD2); assay: biochemical; conditions: read-out: %Ctrl @ 2000nM
BLK = BLK (Homo sapiens, UniProt P51451); assay: biochemical; conditions: read-out: %Ctrl @ 2000nM
[3] = biological target: JAK1(JH1domain-catalytic) (Homo sapiens, UniProt P23458); assay: biochemical; conditions: read-out: %Ctrl @ 2000nM
[4] = test system: tumor slices of clear cell renal carcinoma (786-O-luc xenograft); conditions: 10 μM CX-4945, 5 μM AB668
GRK2 = GRK2 (Homo sapiens, UniProt P25098); assay: biochemical; conditions: read-out: %Ctrl @ 2000nM
SIK2 = SIK2 (Homo sapiens, UniProt Q9H0K1); assay: biochemical; conditions: read-out: %Ctrl @ 2000nM
PIK4CB = PIK4CB (Homo sapiens, UniProt Q9UBF8); assay: biochemical; conditions: read-out: %Ctrl @ 2000nM
CK2α′ = CK2α′ (Homo sapiens, UniProt P19784); conditions: 36 ng recombinant catalytic subunits
CDC2L1 = CDC2L1 (Homo sapiens, UniProt P21127); assay: biochemical; conditions: read-out: %Ctrl @ 2000nM
GRK3 = GRK3 (Homo sapiens, UniProt P35626); assay: biochemical; conditions: read-out: %Ctrl @ 2000nM
PIK3CA(I800L) = PIK3CA(I800L) (Homo sapiens, UniProt P42336, I800L); assay: biochemical; conditions: read-out: %Ctrl @ 2000nM
LATS1 = LATS1 (Homo sapiens, UniProt O95835); assay: biochemical; conditions: read-out: %Ctrl @ 2000nM
MAP3K15 = MAP3K15 (Homo sapiens, UniProt Q6ZN16); assay: biochemical; conditions: read-out: %Ctrl @ 2000nM
RIOK2 = RIOK2 (Homo sapiens, UniProt Q9BVS4); assay: biochemical; conditions: read-out: %Ctrl @ 2000nM
ITK = ITK (Homo sapiens, UniProt Q08881); assay: biochemical; conditions: read-out: %Ctrl @ 2000nM
AAK1 = AAK1 (Homo sapiens, UniProt Q2M2I8); assay: biochemical; conditions: read-out: %Ctrl @ 2000nM
SRMS = SRMS (Homo sapiens, UniProt Q9H3Y6); assay: biochemical; conditions: read-out: %Ctrl @ 2000nM
SRPK1 = SRPK1 (Homo sapiens, UniProt Q96SB4); assay: biochemical; conditions: read-out: %Ctrl @ 2000nM
MINK = MINK (Homo sapiens, UniProt Q8N4C8); assay: biochemical; conditions: read-out: %Ctrl @ 2000nM
CAMK1G = CAMK1G (Homo sapiens, UniProt Q96NX5); assay: biochemical; conditions: read-out: %Ctrl @ 2000nM
PFPK5(P.falciparum) = PFPK5(P.falciparum) (Plasmodium falciparum, UniProt P61075); assay: biochemical; conditions: read-out: %Ctrl @ 2000nM

Sequence of MINK (Q8N4C8 whole entry): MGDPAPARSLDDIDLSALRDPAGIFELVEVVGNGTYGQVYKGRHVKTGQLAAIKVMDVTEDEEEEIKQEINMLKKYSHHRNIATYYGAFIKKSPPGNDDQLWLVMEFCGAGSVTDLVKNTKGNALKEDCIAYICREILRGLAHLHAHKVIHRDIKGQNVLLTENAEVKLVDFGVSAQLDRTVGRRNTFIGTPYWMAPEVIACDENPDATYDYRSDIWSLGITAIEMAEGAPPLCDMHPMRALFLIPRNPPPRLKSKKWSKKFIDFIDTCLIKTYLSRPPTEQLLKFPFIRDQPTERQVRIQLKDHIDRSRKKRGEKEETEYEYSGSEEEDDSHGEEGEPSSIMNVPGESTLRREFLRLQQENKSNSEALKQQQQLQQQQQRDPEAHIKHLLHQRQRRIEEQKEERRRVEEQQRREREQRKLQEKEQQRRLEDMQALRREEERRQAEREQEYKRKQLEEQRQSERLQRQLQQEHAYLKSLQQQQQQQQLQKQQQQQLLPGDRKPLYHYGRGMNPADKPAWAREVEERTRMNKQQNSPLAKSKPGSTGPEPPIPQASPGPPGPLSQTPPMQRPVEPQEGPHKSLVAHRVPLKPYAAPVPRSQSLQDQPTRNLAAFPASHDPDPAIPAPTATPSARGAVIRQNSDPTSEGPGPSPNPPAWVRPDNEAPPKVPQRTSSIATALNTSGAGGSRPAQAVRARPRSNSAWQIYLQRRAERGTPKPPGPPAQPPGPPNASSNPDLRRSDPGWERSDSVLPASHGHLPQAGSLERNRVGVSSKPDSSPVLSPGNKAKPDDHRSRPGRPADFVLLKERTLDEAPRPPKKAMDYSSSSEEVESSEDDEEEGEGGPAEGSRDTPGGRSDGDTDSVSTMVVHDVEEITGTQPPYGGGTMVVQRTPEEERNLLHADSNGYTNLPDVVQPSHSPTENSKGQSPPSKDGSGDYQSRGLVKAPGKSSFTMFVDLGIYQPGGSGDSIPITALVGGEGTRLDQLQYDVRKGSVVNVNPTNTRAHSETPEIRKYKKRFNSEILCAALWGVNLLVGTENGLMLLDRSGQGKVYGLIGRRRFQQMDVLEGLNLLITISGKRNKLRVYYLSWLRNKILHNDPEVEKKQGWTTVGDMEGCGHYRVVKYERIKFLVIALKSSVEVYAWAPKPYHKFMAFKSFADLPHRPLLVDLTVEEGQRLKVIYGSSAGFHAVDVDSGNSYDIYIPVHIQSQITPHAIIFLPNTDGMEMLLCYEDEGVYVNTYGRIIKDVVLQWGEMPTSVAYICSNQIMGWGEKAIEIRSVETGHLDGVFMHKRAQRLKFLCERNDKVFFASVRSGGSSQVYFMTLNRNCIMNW
Sequence of SRPK1 (Q96SB4 whole entry): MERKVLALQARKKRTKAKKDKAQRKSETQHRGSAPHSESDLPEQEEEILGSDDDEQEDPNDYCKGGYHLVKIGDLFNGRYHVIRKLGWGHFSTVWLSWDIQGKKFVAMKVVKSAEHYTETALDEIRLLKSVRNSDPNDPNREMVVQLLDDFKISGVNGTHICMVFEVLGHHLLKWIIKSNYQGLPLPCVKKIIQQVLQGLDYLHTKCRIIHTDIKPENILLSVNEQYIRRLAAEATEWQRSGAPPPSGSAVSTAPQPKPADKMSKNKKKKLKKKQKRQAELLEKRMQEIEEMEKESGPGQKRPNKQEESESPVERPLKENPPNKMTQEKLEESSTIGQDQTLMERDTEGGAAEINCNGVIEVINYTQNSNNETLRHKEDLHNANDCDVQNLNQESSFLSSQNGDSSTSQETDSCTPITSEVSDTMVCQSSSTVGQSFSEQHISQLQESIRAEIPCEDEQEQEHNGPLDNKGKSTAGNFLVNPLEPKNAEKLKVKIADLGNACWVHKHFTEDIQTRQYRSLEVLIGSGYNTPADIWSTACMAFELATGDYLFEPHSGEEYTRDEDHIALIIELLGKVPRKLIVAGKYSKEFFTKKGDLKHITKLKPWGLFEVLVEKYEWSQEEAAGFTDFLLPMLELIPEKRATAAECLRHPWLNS
Sequence of TBK1 (Q9UHD2 whole entry): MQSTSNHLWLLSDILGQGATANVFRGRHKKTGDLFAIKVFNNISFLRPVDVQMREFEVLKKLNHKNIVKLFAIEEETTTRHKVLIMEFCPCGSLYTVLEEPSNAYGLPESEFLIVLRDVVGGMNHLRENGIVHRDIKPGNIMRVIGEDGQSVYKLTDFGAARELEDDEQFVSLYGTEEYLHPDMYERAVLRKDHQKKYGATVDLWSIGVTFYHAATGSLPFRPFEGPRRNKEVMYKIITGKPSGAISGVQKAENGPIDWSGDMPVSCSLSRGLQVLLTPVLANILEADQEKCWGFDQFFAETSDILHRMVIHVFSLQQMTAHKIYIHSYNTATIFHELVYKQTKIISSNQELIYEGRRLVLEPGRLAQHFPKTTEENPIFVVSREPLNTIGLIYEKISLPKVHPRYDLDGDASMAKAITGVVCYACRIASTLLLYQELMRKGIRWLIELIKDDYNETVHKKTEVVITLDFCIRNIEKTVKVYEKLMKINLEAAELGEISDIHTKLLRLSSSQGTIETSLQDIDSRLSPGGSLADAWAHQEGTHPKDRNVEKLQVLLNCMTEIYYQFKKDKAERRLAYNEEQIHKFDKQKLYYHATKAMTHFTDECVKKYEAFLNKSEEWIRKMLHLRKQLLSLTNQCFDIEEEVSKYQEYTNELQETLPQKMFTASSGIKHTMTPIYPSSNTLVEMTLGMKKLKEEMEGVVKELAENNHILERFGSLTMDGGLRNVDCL
Sequence of AAK1 (Q2M2I8 whole entry): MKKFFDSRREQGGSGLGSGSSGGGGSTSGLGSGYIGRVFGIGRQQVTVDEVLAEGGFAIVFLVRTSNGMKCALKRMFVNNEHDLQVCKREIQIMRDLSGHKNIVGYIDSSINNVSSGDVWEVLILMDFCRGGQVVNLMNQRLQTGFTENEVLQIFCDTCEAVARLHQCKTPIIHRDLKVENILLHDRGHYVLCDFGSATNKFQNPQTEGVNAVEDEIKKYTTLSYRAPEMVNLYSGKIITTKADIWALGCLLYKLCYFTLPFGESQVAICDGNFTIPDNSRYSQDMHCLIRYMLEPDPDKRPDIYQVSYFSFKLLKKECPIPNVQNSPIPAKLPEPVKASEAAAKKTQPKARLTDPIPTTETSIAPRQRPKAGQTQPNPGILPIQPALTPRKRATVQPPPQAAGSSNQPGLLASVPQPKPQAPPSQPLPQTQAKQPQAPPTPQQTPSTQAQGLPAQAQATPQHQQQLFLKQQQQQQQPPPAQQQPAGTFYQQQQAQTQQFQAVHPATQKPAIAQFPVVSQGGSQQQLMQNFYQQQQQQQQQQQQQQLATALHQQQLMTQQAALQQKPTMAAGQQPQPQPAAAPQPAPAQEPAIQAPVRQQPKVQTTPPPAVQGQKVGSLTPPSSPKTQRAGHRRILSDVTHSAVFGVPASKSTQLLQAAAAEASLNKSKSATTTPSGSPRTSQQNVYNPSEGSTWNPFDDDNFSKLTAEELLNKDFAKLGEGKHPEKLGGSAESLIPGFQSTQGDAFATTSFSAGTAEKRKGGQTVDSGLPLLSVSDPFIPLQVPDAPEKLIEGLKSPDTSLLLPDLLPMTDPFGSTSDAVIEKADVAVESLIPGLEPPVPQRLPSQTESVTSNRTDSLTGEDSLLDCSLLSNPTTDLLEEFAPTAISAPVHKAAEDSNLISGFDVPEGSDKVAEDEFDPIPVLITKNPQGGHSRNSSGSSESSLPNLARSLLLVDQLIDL
Sequence of CDKL1 (Q00532 whole entry): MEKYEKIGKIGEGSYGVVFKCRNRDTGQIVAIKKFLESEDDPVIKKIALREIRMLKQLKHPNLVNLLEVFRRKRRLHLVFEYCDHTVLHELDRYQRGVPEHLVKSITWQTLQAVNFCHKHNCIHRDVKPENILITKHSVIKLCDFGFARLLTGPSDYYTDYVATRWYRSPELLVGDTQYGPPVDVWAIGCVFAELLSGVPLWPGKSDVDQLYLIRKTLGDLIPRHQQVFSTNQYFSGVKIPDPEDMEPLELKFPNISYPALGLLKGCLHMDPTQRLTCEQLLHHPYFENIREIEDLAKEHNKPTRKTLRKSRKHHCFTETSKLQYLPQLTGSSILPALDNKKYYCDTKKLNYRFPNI
Sequence of PLK2 (Q9NYY3 whole entry): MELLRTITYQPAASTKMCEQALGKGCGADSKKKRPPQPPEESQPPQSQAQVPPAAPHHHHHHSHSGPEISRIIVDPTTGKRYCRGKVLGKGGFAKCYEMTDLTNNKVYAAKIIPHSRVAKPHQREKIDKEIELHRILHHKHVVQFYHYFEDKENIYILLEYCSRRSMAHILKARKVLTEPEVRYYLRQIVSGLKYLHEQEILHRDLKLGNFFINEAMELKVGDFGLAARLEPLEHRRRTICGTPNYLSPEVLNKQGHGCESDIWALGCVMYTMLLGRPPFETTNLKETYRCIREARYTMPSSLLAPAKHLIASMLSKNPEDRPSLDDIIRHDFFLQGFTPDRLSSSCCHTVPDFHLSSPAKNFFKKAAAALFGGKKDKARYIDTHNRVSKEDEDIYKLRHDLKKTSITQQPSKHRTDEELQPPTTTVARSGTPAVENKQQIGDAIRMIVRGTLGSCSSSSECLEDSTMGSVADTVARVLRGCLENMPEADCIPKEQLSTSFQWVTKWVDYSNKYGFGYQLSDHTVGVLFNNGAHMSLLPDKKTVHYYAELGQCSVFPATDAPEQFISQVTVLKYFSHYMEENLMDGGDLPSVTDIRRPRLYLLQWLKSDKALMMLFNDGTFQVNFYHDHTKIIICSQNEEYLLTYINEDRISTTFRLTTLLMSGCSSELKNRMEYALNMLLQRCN
Sequence of JAK1(JH1domain-catalytic) (P23458 854-1154 limits assumed): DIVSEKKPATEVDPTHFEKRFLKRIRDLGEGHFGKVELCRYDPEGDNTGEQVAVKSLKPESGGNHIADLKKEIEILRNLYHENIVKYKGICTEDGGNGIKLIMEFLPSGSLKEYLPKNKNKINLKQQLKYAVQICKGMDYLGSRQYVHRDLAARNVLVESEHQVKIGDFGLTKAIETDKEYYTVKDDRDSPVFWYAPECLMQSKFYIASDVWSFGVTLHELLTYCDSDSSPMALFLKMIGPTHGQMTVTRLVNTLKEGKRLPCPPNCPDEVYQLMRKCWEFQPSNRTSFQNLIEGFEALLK

In the case of `CC(C)COC(=O)c1[nH]c2ccc(F)cc2c1-c1cn(CC2CCN(CCNS(=O)(=O)c3ccc(CC(C)C)cc3)CC2)nn1` [AB668, isobutyl 5-fluoro-3-(1-((1-(2-((4-isobutylphenyl)sulfonamido)ethyl)piperidin-4-yl)methyl)-1H-1,2,3-triazol-4-yl)-1H-indole-2-carboxylate], the remaining activity at 2 µM (TAOK1) is reported as 100%, the remaining activity at 2 µM (MST1R) is reported as 97% and the remaining activity at 2 µM (CDKL1) is reported as 86%. It also gave a remaining activity at 2 µM (DRAK1) of 100%, a remaining activity at 2 µM [1] of 85% and a remaining activity at 2 µM (DDR2) of 94%. The remaining activity at 2 µM (SNARK) was 94%, the remaining activity at 2 µM (STK36) was 100% and the remaining activity at 2 µM (PIK3CG) was 90%. For the same compound, the “Number of Hits S(1)” value (468 kinases) was 2, the “Number of Hits S(10)” value (468 kinases) was 3 and the “Number of Hits S(35)” value (468 kinases) was 4. The remaining activity at 2 µM (LCK) was 99%, the remaining activity at 2 µM (CSNK1A1) was 96% and the remaining activity at 2 µM (CDKL5) was 91%. For the same compound, the remaining activity at 2 µM (MAP4K4) was 96%, the remaining activity at 2 µM (TIE2) was 83% and the remaining activity at 2 µM (TXK) was 92%. The remaining activity at 2 µM (PLK2) was 87%, the remaining activity at 2 µM [2] was 100% and the remaining activity at 2 µM (TLK1) was 100%. For the same compound, the remaining activity at 2 µM (FGFR2) was 93%, the remaining activity at 2 µM (ULK2) was 100% and the remaining activity at 2 µM (FYN) was 64%. The remaining activity at 2 µM (TBK1) was 87%, the remaining activity at 2 µM (BLK) was 100% and the remaining activity at 2 µM [3] was 75%. For the same compound, the “cell viability of tumor slices” value [4] was “significantly reduced cell viability”, the remaining activity at 2 µM (GRK2) was 100% and the remaining activity at 2 µM (SIK2) was 100%. The remaining activity at 2 µM (PIK4CB) was 75%, the “efficacy on the catalytic activity of CK2α and CK2α′” value (CK2α′) was “very similar efficacy” and the remaining activity at 2 µM (CDC2L1) was 90%. It also gave a remaining activity at 2 µM (GRK3) of 89%, a remaining activity at 2 µM (PIK3CA(I800L)) of 98% and a remaining activity at 2 µM (LATS1) of 100%. The remaining activity at 2 µM (MAP3K15) was 51%, the remaining activity at 2 µM (RIOK2) was 73% and the remaining activity at 2 µM (ITK) was 93%. The remaining activity at 2 µM (AAK1) was 80%, the remaining activity at 2 µM (SRMS) was 93% and the remaining activity at 2 µM (SRPK1) was 88%. For the same compound, the remaining activity at 2 µM (MINK) was 100%, the remaining activity at 2 µM (CAMK1G) was 80% and the remaining activity at 2 µM (PFPK5(P.falciparum)) was 100%.
